Test results: patent US5912245A, “Acid amide derivatives and process for the preparation thereof” (Egis Gyogyszergyar RT., priority 1994, dated 1999)
Entries after “also recorded” stand apart in the source; their conditions may differ.

Key:
AMPA = settings: cited from earlier work
[1] = target: NMDA (CGS 19755 receptor); experiment: Selectivity: CGS 19755 receptor binding test
Protocol: The experiment was carried out according to the method of Foster et al. [A. Foster and E. H. F. Wong: Brit.

AMPA recognition site = experiment: ^3H-AMPA binding (radioligand competitive binding assay); parameters: species or system rat; settings: compared with DNQX
Protocol: (§1) 1. ^3 H-AMPA and ^3 H-kainate binding (radioligand competitive binding assay)
(§2) The experiment was carried out according to the method of Murphy et al. [D. E. Murphy, E. W. Snowhill, M. Williams: Neurochem. Res. 12, 775-782 (1987)] using a membrane specimen isolated from rat brain. The binding of kainate labeled with tritium on a rat cortex specimen was measured according to the method of Honore et al. [T. Honore, J. Dejer and M. Nielsen: Neurosci. Lett. 65, 48-52 (1986)].

kainate recognition site = experiment: ^3H-kainate binding (radioligand competitive binding assay); parameters: species or system rat; settings: compared with DNQX
Protocol: as §1, §2

AMPA and kainate = AMPA and kainate antagonism (overall conclusion from the binding and selectivity tests)
Protocol: as §2
The experiment was carried out according to the method of Foster et al. [A. Foster and E. H. F. Wong: Brit. J. Pharmacol. 91, 403-409, (1987)]. When applying the CGS 19755 receptor binding test the method of Murphy et al. [D. E. Murphy, A. J. Hutchison, S. D. Hurt, M. Williams and M. A. Sills: Brit. J. Pharmacol. 95, 932-938 (1988)] was applied.

Row | Binding of ^3H-CGS-19755 Ki [1] | AMPA and kainate antagonism, in words (AMPA and kainate) | SMILES | AMPA antagonizing property, in words (AMPA) | displacement of labeled AMPA, in words (AMPA recognition site) | displacement of labeled kainate, in words (kainate recognition site)
1 | – | – | N#Cc1cc2[nH]c(=O)c(=O)[nH]c2cc1[N+](=O)[O-] [CNQX, 6-cyano-7-nitro-quinoxaline-2,3-dione] | selective AMPA antagonizing property | – | –
2 | not "converge" | selective AMPA and kainate antagonists | O=c1[nH]c2cc([N+](=O)[O-])c(S(=O)(=O)NCCN3CCCCC3)cc2[nH]c1=O [Example 17, 1,2,3,4-Tetrahydro-7-nitro-2,3-dioxo-N-(2-piperidinoethyl)-6-quinoxaline sulfonamide] | – | affinity similar to that of DNQX; also recorded: good reversible ligand | affinity similar to that of DNQX; also recorded: good reversible ligand
3 | does not "converge" | selective AMPA and kainate antagonists | O=c1[nH]c2cc([N+](=O)[O-])c(S(=O)(=O)N(CCO)CCO)cc2[nH]c1=O [Example 24, N,N-bis(2-Hydroxyethyl)-1,2,3,4-tetrahydro-7-nitro-2,3-dioxo-6-quinoxaline sulfonamide] | – | – | –

Row | SMILES | Binding of ^3H-CGS-19755 Ki [1] | AMPA and kainate antagonism, in words (AMPA and kainate) | AMPA antagonizing property, in words (AMPA) | displacement of labeled AMPA, in words (AMPA recognition site) | displacement of labeled kainate, in words (kainate recognition site)
4 | O=c1[nH]c2cc([N+](=O)[O-])c([N+](=O)[O-])cc2[nH]c1=O [DNQX, 6,7-dinitroquinoxaline-2,3-dione, reference compound] | does not "converge" | – | selective AMPA antagonizing property | – | –
